Literature values as cited in patent US12102751B2, “Positive pressure inhaler for delivery of inhalable medication and methods for use” (priority 2019, dated 2024).

Assays:
[1] = after vaping

Structure (SMILES)	time after which plasma concentration falls [1]	time at which plasma concentration reaches maximum strength [1]	solubility in most organic solvents (most organic solvents, specifically lipids and alcohols)	solubility in water (water)
C=C(C)[C@@H]1CCC(C)=C[C@H]1c1c(O)cc(CCCCC)cc1O [CBD, Cannabidiol]	22 min	6 min		
CCCCCc1cc(O)c2c(c1)OC(C)(C)[C@@H]1CCC(C)=C[C@@H]21 [THC, tetrahydrocannabinol]	22 min	6 min	good	very low
